One assay concerns the target JAK-2 (Homo sapiens, UniProt O60674). The assay is described as follows: JAK-2 inhibition assay. In kind it is biochemical.
Another assay has as its target T1, JAK-3 (Homo sapiens, UniProt P52333).
T1 sequence (P52333 1-1124): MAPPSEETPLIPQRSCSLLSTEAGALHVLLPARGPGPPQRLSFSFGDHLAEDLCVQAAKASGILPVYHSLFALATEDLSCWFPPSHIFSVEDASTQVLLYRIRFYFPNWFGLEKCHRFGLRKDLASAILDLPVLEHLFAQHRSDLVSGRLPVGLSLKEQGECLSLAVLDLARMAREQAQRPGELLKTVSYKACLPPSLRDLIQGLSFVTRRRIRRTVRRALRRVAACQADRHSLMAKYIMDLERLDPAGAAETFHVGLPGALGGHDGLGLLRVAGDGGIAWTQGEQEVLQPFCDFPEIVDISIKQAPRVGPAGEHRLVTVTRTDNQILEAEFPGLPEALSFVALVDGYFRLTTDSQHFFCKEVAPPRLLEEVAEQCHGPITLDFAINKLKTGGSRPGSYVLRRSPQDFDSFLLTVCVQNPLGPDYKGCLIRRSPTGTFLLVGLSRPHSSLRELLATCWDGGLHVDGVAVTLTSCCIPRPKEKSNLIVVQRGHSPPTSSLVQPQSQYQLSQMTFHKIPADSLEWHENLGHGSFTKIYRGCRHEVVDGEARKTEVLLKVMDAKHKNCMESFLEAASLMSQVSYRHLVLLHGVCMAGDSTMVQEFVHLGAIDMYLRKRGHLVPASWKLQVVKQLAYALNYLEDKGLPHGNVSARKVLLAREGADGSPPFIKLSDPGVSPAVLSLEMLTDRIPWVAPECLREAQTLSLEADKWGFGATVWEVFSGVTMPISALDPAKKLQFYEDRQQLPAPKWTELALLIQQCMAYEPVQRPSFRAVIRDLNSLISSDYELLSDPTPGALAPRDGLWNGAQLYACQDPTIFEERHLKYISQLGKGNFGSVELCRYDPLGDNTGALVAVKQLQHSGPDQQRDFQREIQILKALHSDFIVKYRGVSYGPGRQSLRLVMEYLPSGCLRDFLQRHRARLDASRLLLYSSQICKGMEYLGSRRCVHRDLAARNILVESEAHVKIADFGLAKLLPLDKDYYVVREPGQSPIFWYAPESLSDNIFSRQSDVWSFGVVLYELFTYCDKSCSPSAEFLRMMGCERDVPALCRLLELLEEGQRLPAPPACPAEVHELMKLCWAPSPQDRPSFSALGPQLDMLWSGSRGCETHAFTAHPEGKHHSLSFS
The experiment in a line: JAK-3 inhibition assay. In kind it is biochemical.

Sequence of JAK-2 (O60674 whole entry): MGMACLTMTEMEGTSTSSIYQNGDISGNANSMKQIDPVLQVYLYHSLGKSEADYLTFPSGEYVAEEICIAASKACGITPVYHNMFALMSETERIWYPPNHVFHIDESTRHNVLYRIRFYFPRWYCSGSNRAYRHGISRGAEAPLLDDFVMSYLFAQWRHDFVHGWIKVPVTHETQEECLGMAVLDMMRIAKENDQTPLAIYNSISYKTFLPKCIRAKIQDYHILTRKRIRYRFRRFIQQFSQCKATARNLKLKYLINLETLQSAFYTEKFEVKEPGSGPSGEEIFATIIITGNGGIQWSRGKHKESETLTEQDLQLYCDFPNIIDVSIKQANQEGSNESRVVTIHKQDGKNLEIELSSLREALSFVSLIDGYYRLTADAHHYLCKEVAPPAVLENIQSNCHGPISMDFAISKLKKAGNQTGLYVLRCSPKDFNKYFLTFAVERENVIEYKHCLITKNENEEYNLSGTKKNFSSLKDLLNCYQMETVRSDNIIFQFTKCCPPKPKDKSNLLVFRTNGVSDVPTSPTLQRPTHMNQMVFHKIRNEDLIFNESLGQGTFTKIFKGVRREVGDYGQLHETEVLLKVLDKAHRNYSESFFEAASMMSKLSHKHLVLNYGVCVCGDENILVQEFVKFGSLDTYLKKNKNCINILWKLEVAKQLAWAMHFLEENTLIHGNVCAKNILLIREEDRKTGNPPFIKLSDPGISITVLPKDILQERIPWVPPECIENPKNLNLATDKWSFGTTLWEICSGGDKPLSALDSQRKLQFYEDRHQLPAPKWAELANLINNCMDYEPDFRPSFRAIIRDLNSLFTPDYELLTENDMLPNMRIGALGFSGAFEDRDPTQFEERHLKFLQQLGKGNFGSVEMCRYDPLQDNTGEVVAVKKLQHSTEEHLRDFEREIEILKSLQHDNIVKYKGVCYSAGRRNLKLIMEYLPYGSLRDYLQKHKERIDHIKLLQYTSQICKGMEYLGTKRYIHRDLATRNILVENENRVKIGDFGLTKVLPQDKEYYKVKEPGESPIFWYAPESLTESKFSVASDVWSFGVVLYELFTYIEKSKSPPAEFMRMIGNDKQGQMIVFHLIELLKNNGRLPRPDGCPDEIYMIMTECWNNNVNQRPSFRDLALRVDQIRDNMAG

As for `c1ccc(Oc2ccc(C3Nc4ccccc4-c4ccnc5[nH]cc3c45)cc2)cc1` (stereo not drawn) [Compound 147], the Ki at JAK-2 and on JAK-3 was greater than 2500 nM each time.
For `CCOc1cc(C2Nc3ccccc3-c3ccnc4[nH]cc2c34)ccc1O` (stereo not drawn) [Compound 148], the inhibition constant Ki on JAK-2 and on JAK-3 was 250 to 2500 nM throughout.
As for `O=C1Nc2ccccc2-c2ccnc3[nH]cc(c23)C1c1ccc(O)c(F)c1` (stereo not drawn) [Compound 150], the inhibition constant Ki (commonly the dissociation constant of the complex between target and ligand, obtained from inhibition or displacement) on JAK-2 is less than 250 nM; on JAK-3 it was no more than 250 nM.
For the compound `O=C1NC(c2ccc(Br)cc2)c2c[nH]c3nccc(c23)-c2ccccc21` (stereo not drawn) [Compound 152], the Ki on JAK-2 and at JAK-3 was greater than 2500 nM in each case.
Regarding `Brc1ccc(C2Nc3ccccc3-c3ccnc4[nH]cc2c34)cc1` (stereo not drawn) [Compound 153], the Ki on JAK-2 and on JAK-3 was greater than 2500 nM each time.
Turning to `N#CCC1Nc2ccccc2-c2ccnc3[nH]cc1c23` (stereo not drawn) [Compound 155], the inhibitory constant (Ki) was less than 250 nM at JAK-2 and no more than 250 nM on JAK-3.
The corresponding values for `CCN(CC)CCOc1ccc(C2Nc3ccccc3-c3ccnc4[nH]cc2c34)cc1` (stereo not drawn) [Compound 157] are less than 250 nM and no more than 250 nM.
The corresponding values for `O=C1Nc2ccccc2-c2ncnc3[nH]cc(c23)C1c1ccc(O)cc1` (stereo not drawn) [Compound 158] are less than 250 nM and no more than 250 nM.
The corresponding values for `CN1C(=O)C(c2ccc(O)cc2)c2c[nH]c3ncnc(c23)-c2ccccc21` (stereo not drawn) [Compound 159] are less than 250 nM and no more than 250 nM.
As to `O=C1Nc2ccccc2-c2ncnc3[nH]cc(c23)C1c1ccc(O)c(F)c1` (stereo not drawn) [Compound 160], the values for the Ki on JAK-2 and at JAK-3 were less than 250 nM and no more than 250 nM, respectively.
The corresponding values for `Cc1ccc(C2C(=O)Nc3ccccc3-c3ncnc4[nH]cc2c34)cc1` (stereo not drawn) [Compound 161] are less than 250 nM and 250 to 2500 nM.
As to `CN(C(=O)Oc1ccc(C2Nc3ccccc3-c3ccnc4[nH]cc2c34)cc1F)c1ccccc1` (stereo not drawn) [Compound 162], the inhibition constant (Ki) on JAK-2 and at JAK-3 was 250 to 2500 nM each time.

The values above are taken from patent US8163732B2, “Tricyclic heteroaryl compounds useful as inhibitors of Janus kinase” (Vertex Pharmaceuticals Incorporated, priority 2005, dated 2012).
